In US20250326794A1, “ANTI-CANCER LEUCINE-RICH PEPTIDES AND USES THEREOF” (KING'S COLLEGE LONDON, priority 2019, published 2025):

What was measured:
[1] = system: U2OS (human bone osteosarcoma); conditions: 72 h
Source text: (§1) HMLER (human mammary endothelial cancer cells), HMLER-shEcad (human mammary endothelial cancer stem cells), and MCF-10A (healthy human mammary endothelial) cells were maintained in Mammary Epithelial Cell Growth Medium (MEGM) with supplements and growth factors: bovine pituitary extract (BPE), hydrocortisone, human epidermal growth factor (hEGF), insulin, and gentamicin/amphotericin-B. HEK293T (human embryonic kidney cell), and U2OS (Homo sapiens bone osteosarcoma) cells were maintained in Dulbecco's Modified Eagle's Medium (DMEM) with a final concentration of 10% fetal bovine serum. The cells were grown in T75 flask at 310 K in a humidified atmosphere containing 5% CO2.
(§2) The colourimetric MTT (3-(4,5-dimethylthiazol-2-yl)-2,5-diphenyltetrazolium bromide) assay was used to determine the toxicity of the anticancer peptides and conventional anticancer drugs. 5×10^3 cells were seeded in each well of a 96-well microplate. The cells were incubated overnight. Elevated concentrations of the compounds (0, 0.1, 0.2, 0.4, 0.8, 1.6, 3.1, 6.3, 12.5, 25, 50 and 100 μM) were added and incubated for 72 hr with a total volume 200 μL. The stock solutions of the compounds were prepared as 5 mM solutions in DMSO and diluted using media or in pure water. The final concentration of DMSO in each well was either 0.5% or 0% and this amount was present in the untreated control. After 72 hr, 20 μL of a 4 mg/mL solution of MTT in PBS was added to each well, and the plate was incubated for an additional 4 hr. The MEGM/MTT mixture was aspirated and 100 μL of DMSO was added to dissolve the resulting purple formazan crystals. The absorbance of the solutions in each well was read at 550 nm wavelength. Absorbance values were normalized to either DMSO-containing or non DMSO-containing control wells and plotted as concentration of test compound versus % cell viability. IC50 values were interpolated from the resulting dose dependent curves.
(§3) The peptides were screened against several different human cell lines and their cytotoxicity were determined. Cell lines utilised include MCF-10A (human breast epithelial cell), HMLER (human breast cancer bulk cell), HMLER-shEcad (human breast cancer stem cell), HEK293T (human embryonic kidney cell), and U2OS (human bone osteosarcoma).

[2] = system: HMLER-shEcad (human breast cancer stem cell); assay: cells; conditions: 72 h
Source text: as §1, §2, §3

[3] = system: HEK293T (human embryonic kidney cell); assay: cells; conditions: 72 h
Source text: as §1, §2, §3

[4] = system: HMLER (human breast cancer bulk cell); assay: cells; conditions: 72 h
Source text: as §1, §2, §3

[5] = ANTS/DPX liposome leakage assay, 3POPC/1POPG vesicles; assay type: biochemical; conditions: 0.5 mM vesicles; for Peptide Concentration-induced 50% ANTS/DPX leakage at pH 4.8, 3POPC/1POPG Vesicle: pH 4.8, lipid per peptide; for Peptide Concentration-induced 50% ANTS/DPX leakage at pH 7.4, 3POPC/1POPG Vesicle: pH 7.4, lipid per peptide
Description: (§4) In brief, 0.5 mM POPC vesicles (grey) or POPC:POPG vesicles (ratio 3:1, black) were incubated with peptide concentrations of 0, 0.02, 0.04, 0.08, 0.16, 0.32, 0.64, 1.25, 2.5, 5, 10, and 20 μM in each A) hydrochloric acid-adjusted phosphate buffered saline (1×, pH 4.8) and B) phosphate buffered saline (1×, pH 7.4).
(§5) The lipids 1-palmitoyl-2-oleoyl-sn-glycero-3-phosphocholine (POPC), 1-palmitoyl-2-oleoyl-snglycero-3-phospho-(1′-rac-glycerol) (POPG) were purchased from Avanti Polar Lipids and dissolved in chloroform. Large unilamellar vesicles (LUVs) were produced by extrusion through 100 nm pore filter using an extruder and filters purchased from Avanti Polar Lipids.
(§6) 5 mM ANTS (8-aminonaphthalene-1,3,6-trisulfonic acid, disodium salt) and 12.5 mM DPX (p-xylene-bis-pyridinium bromide) were entrapped in 0.1 μm diameter extruded vesicles with lipids. Gel filtration chromatography using a Sephadex G-100 (GE Healthcare Life Sciences Inc) was used to remove external free ANTS/DPX from LUVs with entrapped contents. LUVs were diluted to 0.5 mM and used to measure the leakage activity by addition of aliquots of peptides. Leakage was measured after 3 h incubation. 10% Triton was used as the positive control to measure the maximum leakage of the vesicle. Fluorescence emission spectra were recorded using excitation and emission wavelength of 350 nm and 510 nm for ANTS/DPX using a BioTek Synergy H1 Hybrid Multi-Mode Reader.
(§7) Table 4 illustrates peptide concentration-induced 50% ANTS/DPX liposome leakage. 0.5 mM POPC and 3POPC/1POPG vesicles were fixed and incubated with titrated peptide concentration ([…]) each in phosphate buffered saline (1×, pH 7.4) and hydrochloric acid-adjusted phosphate buffered saline (1×, pH 4.8). The values are shown as lipid per peptide. †N-terminus is free, C-terminus: —W—NH2.

[6] = ANTS/DPX liposome leakage assay, POPC vesicles; assay type: biochemical; conditions: 0.5 mM vesicles; for Peptide Concentration-induced 50% ANTS/DPX leakage at pH 4.8, POPC Vesicle: pH 4.8, lipid per peptide; for Peptide Concentration-induced 50% ANTS/DPX leakage at pH 7.4, POPC Vesicle: pH 7.4, lipid per peptide
Description: as §4, §5, §6, §7

[7] = Tryptophan fluorescent binding assay, 3POPC/1POPG vesicles; conditions: 50 μM peptide, PBS pH 7.4, lipid per peptide
Description: (§8) In brief, 50 μM peptides were fixed and incubated with titrated POPC vesicles (black) or 3POPC/1POPG vesicles (grey) at concentrations of 0, 12.5, 25, 50, 100, 250, 500, 1000, 2500, and 5000 μM in phosphate buffered saline (1×, pH 7.4). The lipid concentration that causes 50% peptide binding was determined using a tryptophan fluorescent binding assay and the values are shown as lipid per peptide.
as §5
(§9) Peptides (50 μM) and POPC/POPG LUVs (600 μM) were prepared in 10 mM phosphate buffer (pH 7.0). The solutions were incubated and measured after 60 minutes. Excitation was fixed at 280 nm (slit 9 nm) and emission was collected from 300 to 450 nm (slit 9 nm). The spectra were recorded using a Synergy H1 Hybrid Multi-Mode Reader (FIG. 3A) and Cytation™ 5 Cell Imaging Multi-Mode Reader (FIG. 2) from BioTek and were averaged over 3 scans.
(§10) Table 3 illustrates the lipid concentration-induced 50% peptide binding onto a liposome. 50 μM peptide was fixed and incubated with titrated lipid (POPC vesicles or 3POPC/1POPG vesicles) at concentrations of 0, 12.5, 25, 50, 100, 250, 500, 1000, 2500, and 5000 μM in phosphate buffered saline (1×, pH 7.4). The lipid concentration that causes 50% peptide binding was determined using tryptophan fluorescent binding assay and the values are shown as lipid per peptide. †N-terminus is free, C-terminus: —W—NH2.

[8] = Tryptophan fluorescent binding assay, POPC vesicles; conditions: 50 μM peptide, PBS pH 7.4, lipid per peptide
Description: as §8, §5, §9, §10

Structure (SMILES) | IC50 [1] | IC50 [2] | IC50 [3] | IC50 [4] | Peptide Concentration-induced 50% ANTS/DPX leakage at pH 4.8, 3POPC/1POPG Vesicle [5] | Peptide Concentration-induced 50% ANTS/DPX leakage at pH 7.4, 3POPC/1POPG Vesicle [5] | Peptide Concentration-induced 50% ANTS/DPX leakage at pH 4.8, POPC Vesicle [6] | Peptide Concentration-induced 50% ANTS/DPX leakage at pH 7.4, POPC Vesicle [6] | Lipid Concentration-induced 50% Peptide Binding, 3POPC/1POPG Vesicle [7] | Lipid Concentration-induced 50% Peptide Binding, POPC Vesicle [8]
CC(C)C[C@H](NC(=O)CN)C(=O)N[C@@H](CC(C)C)C(=O)N[C@@H](CCC(=O)O)C(=O)N[C@@H](CC(C)C)C(=O)N[C@@H](CC(C)C)C(=O)N[C@@H](Cc1c[nH]cn1)C(=O)N[C@@H](CC(C)C)C(=O)N[C@@H](CC(C)C)C(=O)N[C@@H](CC(C)C)C(=O)N[C@@H](Cc1c[nH]cn1)C(=O)N[C@@H](C)C(=O)N[C@@H](C)C(=O)NCC(=O)N[C@@H](Cc1c[nH]c2ccccc12)C(N)=O [EHH] | 117 ± 7 µM | 16.1 ± 3.18 µM | 5.9 ± 0.14 µM | 25.4 ± 2.76 µM | 80 L/P | 981 L/P | 386 L/P | 1043 L/P | 0.69 L/P | 0.94 L/P
CC(C)C[C@H](NC(=O)CN)C(=O)N[C@@H](CC(C)C)C(=O)N[C@@H](CCC(=O)O)C(=O)N[C@@H](CC(C)C)C(=O)N[C@@H](CC(C)C)C(=O)N[C@@H](Cc1c[nH]cn1)C(=O)N[C@@H](CC(C)C)C(=O)N[C@@H](CC(C)C)C(=O)N[C@@H](CC(C)C)C(=O)N[C@@H](CCCCN)C(=O)N[C@@H](C)C(=O)N[C@@H](C)C(=O)NCC(=O)N[C@@H](Cc1c[nH]c2ccccc12)C(N)=O [EHK] | 25 µM | 0.71 ± 0.13 µM | 5.35 ± 0.07 µM | 1.35 ± 0.35 µM | 117 L/P | 505 L/P | 55 L/P | 981 L/P | 0.42 L/P | 0.56 L/P
CC(C)C[C@H](NC(=O)CN)C(=O)N[C@@H](CC(C)C)C(=O)N[C@@H](CCC(=O)O)C(=O)N[C@@H](CC(C)C)C(=O)N[C@@H](CC(C)C)C(=O)N[C@@H](CCCCN)C(=O)N[C@@H](CC(C)C)C(=O)N[C@@H](CC(C)C)C(=O)N[C@@H](CC(C)C)C(=O)N[C@@H](CCC(=O)O)C(=O)N[C@@H](C)C(=O)N[C@@H](C)C(=O)NCC(=O)N[C@@H](Cc1c[nH]c2ccccc12)C(N)=O [EKE] | 8 ± 0.71 µM | 1.3 ± 0.14 µM | 5.15 ± 0.21 µM | 1.8 ± 0.28 µM | 438 L/P | 657 L/P | 75 L/P | 738 L/P | 1.63 L/P | 2.75 L/P
CC(C)C[C@H](NC(=O)CN)C(=O)N[C@@H](CC(C)C)C(=O)N[C@@H](CCC(=O)O)C(=O)N[C@@H](CC(C)C)C(=O)N[C@@H](CC(C)C)C(=O)N[C@@H](CCCCN)C(=O)N[C@@H](CC(C)C)C(=O)N[C@@H](CC(C)C)C(=O)N[C@@H](CC(C)C)C(=O)N[C@@H](Cc1c[nH]cn1)C(=O)N[C@@H](C)C(=O)N[C@@H](C)C(=O)NCC(=O)N[C@@H](Cc1c[nH]c2ccccc12)C(N)=O [EKH] | 23.8 ± 0.81 µM | 2.18 ± 0.31 µM | 6.65 ± 1.34 µM | 2.75 ± 0.07 µM | 88 L/P | 365 L/P | 55 L/P | 608 L/P | 0.19 L/P | 0.75 L/P
CC(C)C[C@H](NC(=O)CN)C(=O)N[C@@H](CC(C)C)C(=O)N[C@@H](CCC(=O)O)C(=O)N[C@@H](CC(C)C)C(=O)N[C@@H](CC(C)C)C(=O)N[C@@H](CCCCN)C(=O)N[C@@H](CC(C)C)C(=O)N[C@@H](CC(C)C)C(=O)N[C@@H](CC(C)C)C(=O)N[C@@H](CCCCN)C(=O)N[C@@H](C)C(=O)N[C@@H](C)C(=O)NCC(=O)N[C@@H](Cc1c[nH]c2ccccc12)C(N)=O [EKK] | 12.2 ± 1.84 µM | 1.19 ± 0.4 µM | 3.35 ± 0.49 µM | 1.72 ± 0.21 µM | 219 L/P | 235 L/P | 60 L/P | 1095 L/P | 0.63 L/P | 1.50 L/P
